Experimental data reported in patent publication US9066938B2, “GPBP-1 inhibition and its therapeutic use” (Fibrostatin S.L., priority 2012, dated 2015).
Where two headings read alike, the source gives them in different places.

What was measured:
A549 cells = type: cell-based; details: for Activity as enhancer of doxorubicin-induced cell death, relative activity symbol: A549 cell cultures; for toxicity of the compound by itself in A549 cultures: 50 μM
Method: FIG. 2. […] Cells were seeded in 96-well plates and treated with the indicated compound combinations. The cellular viability (cell number) was measured with alamarBlue® and arbitrary units of fluorescence after 36 h of treatment (vertical axis).
FIG. 7. […] A549 cells were seeded on 96-well culture plates and after 4 h were treated with the indicated concentrations of doxorubicin in absence or presence of T12 (50 μM) and/or CFTR-inhibitor-172 (25 μM). Cells were cultured for additional 36 h and cell viability assessed as in FIG. 2.
A549 human lung adenocarcinoma cancer cells (CLS Cell Lines Service) were used as an ex vivo model for the assessment of anti-tumor activity of specific compounds. Unless otherwise indicated A549 cells were cultured in DMEM: Ham's F12 medium supplemented with 2 mM L-glutamine and 10% fetal bovine serum. A549 cells resistant to doxorubicin (A549-DR) were obtained treating cells with 1 μM for 4 weeks. A549 cells were transfected with a plasmid that expresses GPBP-1 and further selected with G418 (Invitrogen) to obtain a cell line (A549-GPBP) that constitutively expresses GPBP-1.
Cytotoxicity assays were performed with alamarBlue® reagent (Invitrogen) according to manufacturer's instructions. A549 cells were seeded on 96-well culture plates (7,500 cells/well) and allowed to settle during 4 h. Then, cells were cultured with individual peptidomimetics at concentrations ranging from 0 to 50 μM, in presence of doxorubicin at concentrations ranging from 0 to 10 μM for 36 h. JLSM cells were harvested by treatment with 0.25% trypsin (Lonza) and plated on collagen I coated 96-well black culture plate (Perkin Elmer) at a density of 10.000 cells per cm^2. After 4 h settling, cells were treated with different peptidomimetics (with or without doxorubicin) for 36 h. Subsequently alamarBlue® reagent was added and incubation maintained for 3 h. Fluorescence was measured using 560EX nm/590EM nm filter settings with a SpectraMax GeminiXPS (Molecular Devices). Blank wells containing media were used to determine background fluorescence.
The activity shown for each compound in Table 1 is the factor by which doxorubicin LC50 is reduced by the compound at a 50-μM concentration in A549 cell cultures. […] The symbols −, −/+, +, ++, +++, ++++ in the third column are used to show relative activities of compounds in a simplified way.

[1] = tested on: CSC derived from a uterine cancer; test: Sensitivity of CSC derived from a uterine cancer; type: cell-based; details: data not shown
human recombinant GPBP-1 = target: T1, human recombinant GPBP-1 (Homo sapiens, UniProt Q9Y5P4); details: Saus et al. 2008, 2010; cited from earlier work
T1 construct: made in house; host or cells: Pichia pastoris
T1 sequence (Q9Y5P4 1-624): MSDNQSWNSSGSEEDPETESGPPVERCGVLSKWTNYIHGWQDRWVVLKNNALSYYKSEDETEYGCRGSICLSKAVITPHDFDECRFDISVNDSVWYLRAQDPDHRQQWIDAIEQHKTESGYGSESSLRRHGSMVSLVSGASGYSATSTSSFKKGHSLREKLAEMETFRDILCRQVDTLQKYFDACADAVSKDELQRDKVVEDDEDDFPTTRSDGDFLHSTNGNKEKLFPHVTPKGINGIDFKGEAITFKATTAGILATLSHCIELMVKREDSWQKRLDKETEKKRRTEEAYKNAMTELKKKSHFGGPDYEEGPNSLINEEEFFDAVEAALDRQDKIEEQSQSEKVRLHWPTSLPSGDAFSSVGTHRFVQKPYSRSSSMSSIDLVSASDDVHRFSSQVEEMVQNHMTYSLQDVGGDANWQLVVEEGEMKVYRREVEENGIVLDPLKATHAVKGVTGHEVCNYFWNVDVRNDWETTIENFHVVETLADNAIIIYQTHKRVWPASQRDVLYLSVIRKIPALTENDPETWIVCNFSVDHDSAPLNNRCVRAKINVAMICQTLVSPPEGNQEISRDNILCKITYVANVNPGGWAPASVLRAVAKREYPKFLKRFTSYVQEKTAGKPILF

Compound	Activity as enhancer of doxorubicin-induced cell death, relative activity symbol (A549 cells; compound at 50 μM)	further results
Cc1cccc(-c2ccc(-c3ccc(O)cc3CCC(=O)O)cc2CO)c1	−/+	
Cc1cccc(-c2ccc(-c3ccc(O)cc3CCC(=O)O)cc2C)c1	++	
Cc1cccc(-c2ccc(-c3ccc(O)cc3CCC(=O)O)cc2CF)c1	++	
Cc1cccc(-c2ccc(-c3ccc(O)cc3CCC(=O)O)cc2C(F)F)c1	++	
COc1ccc(-c2ccc(-c3cccc(C)c3)c(CO)c2)c(CCC(=O)O)c1	−/+	
O=C(O)CCc1cc(O)ccc1-c1ccc(-c2cccc(C(F)(F)F)c2)c(CO)c1	−	
Cc1cc(-c2ccc(O)cc2CCC(=O)O)ccc1-c1cccc(C(F)(F)F)c1	+	
O=C(O)CCc1cc(O)ccc1-c1ccc(-c2cccc(C(F)(F)F)c2)c(CF)c1	++++	
O=C(O)CCc1cc(O)ccc1-c1ccc(-c2cccc(C(F)(F)F)c2)c(C(F)F)c1	++	
COc1ccc(-c2ccc(-c3cccc(C(F)(F)F)c3)c(CO)c2)c(CCC(=O)O)c1	+	
COc1ccc(-c2ccc(-c3cccc(C(F)(F)F)c3)c(C)c2)c(CCC(=O)O)c1	+++	
O=C(O)CCc1cc(O)ccc1-c1ccc(-c2cccnc2)c(CO)c1	+	
O=C(O)CCc1cc(O)ccc1-c1ccc(-c2cccnc2)c(CF)c1	+	
O=C(O)CCc1cc(O)ccc1-c1ccc(-c2cccnc2)c(C(F)F)c1	+	
C[n+]1cccc(-c2ccc(-c3ccc(O)cc3CCC(=O)[O-])cc2CO)c1	−	
COc1ccc(-c2ccc(-c3cccnc3)c(CO)c2)c(CCC(=O)O)c1	−	
COc1ccc(-c2ccc(-c3cccnc3)c(C)c2)c(CCC(=O)O)c1	++++	
COc1ccc(-c2ccc(-c3cccnc3)c(CF)c2)c(CCC(=O)O)c1	+++	
Cc1cccc(-c2ccc(-c3ccc(OCC(=O)O)cc3CCC(=O)O)cc2C)c1	−	
CCCCCCCCCCCCCCCC(=O)Oc1ccc(-c2ccc(-c3cccc(C)c3)c(C)c2)c(CCC(=O)O)c1	−	
CCOC(=O)CCc1cc(O)ccc1-c1ccc(-c2cccc(C(F)(F)F)c2)c(C)c1	−?	
Cc1cccc(-c2ccc(-c3ccc(O)cc3C(C)C)cc2CCC(=O)O)c1	+	
Cc1cccc(-c2ccc(-c3ccc(O)cc3CCO)cc2CCC(=O)O)c1	+	
COc1ccc(-c2ccc(-c3ccc(OC)c(C)c3)c(C)c2)c(CCC(=O)O)c1	++++	
CCOC(=O)CCc1cc(O)ccc1-c1ccc(-c2cccnc2)c(CO)c1 [13c]		toxicity of the compound by itself in A549 cultures (A549 cells): significantly toxic; Activity as enhancer of doxorubicin-induced cell death, relative activity symbol (A549 cells; compound at 10 μM): +
CCCOc1ccc(-c2ccc(-c3cccc(C)c3)c(C)c2)c(CCC(=O)O)c1 [24a]		toxicity of the compound by itself in A549 cultures (A549 cells): significantly toxic; Activity as enhancer of doxorubicin-induced cell death, relative activity symbol (A549 cells; compound at 25 μM): ++
CCCOc1ccc(-c2ccc(-c3cccc(C(F)(F)F)c3)c(C)c2)c(CCC(=O)O)c1 [24c]		toxicity of the compound by itself in A549 cultures (A549 cells): significantly toxic; Activity as enhancer of doxorubicin-induced cell death, relative activity symbol (A549 cells; compound at 10 μM): ++
O=C(O)c1ccc(C=C2SC(=S)N(c3cccc(C(F)(F)F)c3)C2=O)cc1 [CFTR/ABCC7 inhibitor 172, 3-[(3-Trifluoromethyl)phenyl]-5-[(4-carboxyphenyl)methylene]-2-thioxo-4-thiazolidinone, reference compound]		cell viability in cultures treated with T12 with or without doxorubicin (A549 cells; CFTR-inhibitor-172 25 μM, T12 50 μM, 36 h): significantly reduced cell viability
COc1ccc(-c2ccc(-c3ccc(OC)c(Cl)c3)c(C)c2)c(CCC(=O)O)c1 [T55]		Activity as enhancer of doxorubicin-induced cell death, relative activity symbol (A549 cells; compound at 25 μM): ++++; sensitivity of uterine cancer CSC to the compound [1]: highly sensitive
LATLSHCIELMVKR (SEQ ID NO: 8) [Q2, isolated peptide representing 260SHCIE264 and flanking regions of GPBP-1]		inhibition of GPBP-1 kinase activity (human recombinant GPBP-1): efficiently inhibits
